Tested on: MV-4-11 cells
Assay: Gene expression microarray analysis (Affymetrix PrimeView) and GSEA
Assay type: cell-based, human
Parameters: RFU PODN (11730768_x_at) / Fold change /veh PODN (11730768_x_at) / RFU LINC00158 (11744669_a_at) / Fold change /veh LINC00158 (11744669_a_at) / RFU DUSP10 (11751237_a_at) / Fold change /veh DUSP10 (11751237_a_at) / RFU ID3 (11757404_x_at) / Fold change /veh ID3 (11757404_x_at) / RFU PLEKHG5 (11737974_s_at) / Fold change /veh PLEKHG5 (11737974_s_at) / RFU LRRC4B (11730491_at) / Fold change /veh LRRC4B (11730491_at) / RFU GIMAP4 (11747438_a_at) / Fold change /veh GIMAP4 (11747438_a_at) / RFU KRT8 (11758183_x_at) / Fold change /veh KRT8 (11758183_x_at) / RFU CNN1 (11734310_a_at) / Fold change /veh CNN1 (11734310_a_at) / RFU VPS37D (11726825_at) / Fold change /veh VPS37D (11726825_at) / RFU C10orf10 (11716522_x_at) / Fold change /veh C10orf10 (11716522_x_at) / RFU KIR2DL2 /// KIR2DL4 /// KIR2DL5A /// KIR2DL5B /// KIR2DS1 /// KIR2DS2 /// KIR2DS3 /// KIR2DS4 /// KIR3DL3 /// KIR3DL3 /// KIR3DS1 (11738374_at) / Fold change /veh KIR2DL2 /// KIR2DL4 /// KIR2DL5A /// KIR2DL5B /// KIR2DS1 /// KIR2DS2 /// KIR2DS3 /// KIR2DS4 /// KIR3DL3 /// KIR3DL3 /// KIR3DS1 (11738374_at) / RFU C1QL1 (11718748_at) / Fold change /veh C1QL1 (11718748_at) / RFU TMPRSS4 (11747572_a_at) / Fold change /veh TMPRSS4 (11747572_a_at) / RFU HAMP (11756126_x_at) / Fold change /veh HAMP (11756126_x_at) / RFU RNFT2 (11725882_a_at) / Fold change /veh RNFT2 (11725882_a_at) / RFU NR4A2 (11747474_a_at) / Fold change /veh NR4A2 (11747474_a_at) / RFU ABCC12 (11746883_a_at) / Fold change /veh ABCC12 (11746883_a_at) / RFU TMEM136 (11760407_x_at) / Fold change /veh TMEM136 (11760407_x_at) / RFU CLDN22 /// WWC2 (11732394_at) / Fold change /veh CLDN22 /// WWC2 (11732394_at) / RFU HLA-DPB1 (11760878_x_at) / Fold change /veh HLA-DPB1 (11760878_x_at) / RFU SPINT1 (11716480_a_at) / Fold change /veh SPINT1 (11716480_a_at) / RFU GAP43 (11754022_s_at) / Fold change /veh GAP43 (11754022_s_at) / RFU A4GNT (11735810_at) / Fold change /veh A4GNT (11735810_at) / RFU PRB3 (11715151_x_at) / Fold change /veh PRB3 (11715151_x_at) / RFU TUBB4B (11761932_at) / Fold change /veh TUBB4B (11761932_at) / RFU CAPN14 (11732068_a_at) / Fold change /veh CAPN14 (11732068_a_at) / RFU TMCC2 (11721928_a_at) / Fold change /veh TMCC2 (11721928_a_at) / RFU IRGQ (11745062_a_at) / Fold change /veh IRGQ (11745062_a_at) / RFU FAM174B (11720279_a_at) / Fold change /veh FAM174B (11720279_a_at) / RFU TMPRSS4 (11748680_a_at) / Fold change /veh TMPRSS4 (11748680_a_at) / RFU FAM212B (11763350_a_at) / Fold change /veh FAM212B (11763350_a_at) / RFU PLEKHG5 (11743358_a_at) / Fold change /veh PLEKHG5 (11743358_a_at) / RFU ZSCAN30 (11745921_a_at) / Fold change /veh ZSCAN30 (11745921_a_at) / RFU CMKLR1 (11741424_a_at) / Fold change /veh CMKLR1 (11741424_a_at) / RFU LOC101060620 /// MAPK8IP1 (11723275_at) / Fold change /veh LOC101060620 /// MAPK8IP1 (11723275_at) / RFU SPTSSB (11747773_x_at) / Fold change /veh SPTSSB (11747773_x_at) / RFU PRSS12 (11739890_at) / Fold change /veh PRSS12 (11739890_at) / RFU BIN1 (11741810_x_at) / Fold change /veh BIN1 (11741810_x_at) / RFU WNT11 (11732464_a_at) / Fold change /veh WNT11 (11732464_a_at) / RFU C10orf10 (11716521_a_at) / Fold change /veh C10orf10 (11716521_a_at) / RFU C5orf56 (11738089_at) / Fold change /veh C5orf56 (11738089_at) / RFU CYB561 (11721691_x_at) / Fold change /veh CYB561 (11721691_x_at) / RFU ANKRD19P (11752326_a_at) / Fold change /veh ANKRD19P (11752326_a_at) / RFU OR2T12 /// OR2T33 /// OR2T8 (11738714_s_at) / Fold change /veh OR2T12 /// OR2T33 /// OR2T8 (11738714_s_at) / RFU VCAN (11748164_a_at) / Fold change /veh VCAN (11748164_a_at) / RFU JSRP1 (11732532_at) / Fold change /veh JSRP1 (11732532_at) / RFU KRTAP10-11 (11738290_x_at) / Fold change /veh KRTAP10-11 (11738290_x_at) / RFU MYO3A (11730013_a_at) / Fold change /veh MYO3A (11730013_a_at) / RFU EBF3 (11725865_a_at) / Fold change /veh EBF3 (11725865_a_at) / RFU CAMK2N1 (11719241_x_at) / Fold change /veh CAMK2N1 (11719241_x_at) / RFU C5orf56 (11738088_a_at) / Fold change /veh C5orf56 (11738088_a_at) / RFU OLFML3 (11715873_a_at) / Fold change /veh OLFML3 (11715873_a_at) / RFU LOC100653217 /// NTM (11731650_a_at) / Fold change /veh LOC100653217 /// NTM (11731650_a_at) / RFU MAPK11 (11762145_a_at) / Fold change /veh MAPK11 (11762145_a_at) / RFU FIZ1 (11724087_x_at) / Fold change /veh FIZ1 (11724087_x_at) / RFU OASL (11726364_x_at) / Fold change /veh OASL (11726364_x_at) / RFU SOX15 (11748057_x_at) / Fold change /veh SOX15 (11748057_x_at) / RFU CD79A (11719716_a_at) / Fold change /veh CD79A (11719716_a_at) / RFU HIST1H1D (11736915_at) / Fold change /veh HIST1H1D (11736915_at) / RFU CASKIN2 (11723855_a_at) / Fold change /veh CASKIN2 (11723855_a_at) / RFU LOC730098 (11760151_x_at) / Fold change /veh LOC730098 (11760151_x_at) / RFU OR4N2 (11742367_at) / Fold change /veh OR4N2 (11742367_at) / RFU PRRT2 (11749266_a_at) / Fold change /veh PRRT2 (11749266_a_at) / RFU SNX32 (11753110_a_at) / Fold change /veh SNX32 (11753110_a_at) / RFU CDHR5 (11726645_a_at) / Fold change /veh CDHR5 (11726645_a_at) / RFU RCAN1 (11760418_a_at) / Fold change /veh RCAN1 (11760418_a_at) / RFU FAM167A (11723789_a_at) / Fold change /veh FAM167A (11723789_a_at) / RFU FAM26E (11764081_at) / Fold change /veh FAM26E (11764081_at) / RFU ISYNA1 (11749810_s_at) / Fold change /veh ISYNA1 (11749810_s_at) / RFU ACY1 (11761880_at) / Fold change /veh ACY1 (11761880_at) / RFU 11764098_at / Fold change /veh 11764098_at / RFU SAMD14 (11745864_x_at) / Fold change /veh SAMD14 (11745864_x_at) / RFU NPB (11741838_a_at) / Fold change /veh NPB (11741838_a_at) / RFU TMPRSS6 (11731388_a_at) / Fold change /veh TMPRSS6 (11731388_a_at) / RFU KRTAP10-2 (11738614_at) / Fold change /veh KRTAP10-2 (11738614_at) / RFU ARHGAP8 /// PRR5-ARHGAP8 (11727945_x_at) / Fold change /veh ARHGAP8 /// PRR5-ARHGAP8 (11727945_x_at) / RFU KRTAP5-7 /// NADSYN1 (11734609_at) / Fold change /veh KRTAP5-7 /// NADSYN1 (11734609_at) / RFU RASL12 (11751679_a_at) / Fold change /veh RASL12 (11751679_a_at) / RFU CDKN2B (11736163_a_at) / Fold change /veh CDKN2B (11736163_a_at) / RFU PRF1 (11729649_at) / Fold change /veh PRF1 (11729649_at) / RFU, ZNF638 /// ZNF638-IT1 / Fold change vs veh, ZNF638 /// ZNF638-IT1 / RFU, PANK3 / Fold change vs veh, PANK3 / RFU, SH3YL1 / Fold change vs veh, SH3YL1 / RFU, ZEB2 / Fold change vs veh, ZEB2 / RFU, NRIP1 / Fold change vs veh, NRIP1 / RFU, PTTG1IP / Fold change vs veh, PTTG1IP / RFU, CAPN2 / Fold change vs veh, CAPN2 / RFU, MED14 / Fold change vs veh, MED14 / RFU, SNORA58 / Fold change vs veh, SNORA58 / RFU, C1orf63 / Fold change vs veh, C1orf63 / RFU, LRRFIP1 / Fold change vs veh, LRRFIP1 / RFU, NDUFAF7 / Fold change vs veh, NDUFAF7 / RFU, SLC12A2 / Fold change vs veh, SLC12A2 / RFU, IBTK / Fold change vs veh, IBTK / RFU, ESF1 / Fold change vs veh, ESF1 / Fold change vs veh, TMEM50B / RFU, TAOK1 / Fold change vs veh, TAOK1 / RFU, ACBD3 / Fold change vs veh, ACBD3 / RFU, TMA16 / Fold change vs veh, TMA16 / RFU, RWDD3 / Fold change vs veh, RWDD3 / RFU, BCAT1 / Fold change vs veh, BCAT1 / RFU, EDEM3 / Fold change vs veh, EDEM3 / RFU, TMEM33 / Fold change vs veh, TMEM33 / RFU, WDR75 / Fold change vs veh, WDR75 / RFU, AHCTF1 / Fold change vs veh, AHCTF1 / RFU, TFRC / Fold change vs veh, TFRC / RFU, ZDHHC17 / Fold change vs veh, ZDHHC17 / RFU, NOM1 / Fold change vs veh, NOM1 / RFU, ARL8B / Fold change vs veh, ARL8B / RFU, ZBTB11 / Fold change vs veh, ZBTB11 / RFU, TAMM41 / Fold change vs veh, TAMM41 / RFU, KIAA1704 /// LOC100996395 / Fold change vs veh, KIAA1704 /// LOC100996395 / RFU, ING1 / Fold change vs veh, ING1 / RFU, TRMT61B / Fold change vs veh, TRMT61B / RFU, FUBP3 / Fold change vs veh, FUBP3 / RFU, TP53 / Fold change vs veh, TP53 / RFU, TNKS2 / Fold change vs veh, TNKS2 / RFU, ZFP14 / Fold change vs veh, ZFP14 / RFU, ACTR2 / Fold change vs veh, ACTR2 / RFU, PPP3R1 / Fold change vs veh, PPP3R1 / RFU, PIK3R1 / Fold change vs veh, PIK3R1 / RFU, HNRNPA1 / Fold change vs veh, HNRNPA1 / RFU, RNF170 / Fold change vs veh, RNF170 / RFU, ZNF28 / Fold change vs veh, ZNF28 / RFU, RNGTT / Fold change vs veh, RNGTT / RFU, OGT / Fold change vs veh, OGT / RFU, BRD1 / Fold change vs veh, BRD1 / RFU, MARS / Fold change vs veh, MARS / RFU, ZNF655 / Fold change vs veh, ZNF655 / RFU, FAHD1 / Fold change vs veh, FAHD1 / RFU, BDP1 / Fold change vs veh, BDP1 / RFU, LRRCC1 / Fold change vs veh, LRRCC1 / RFU, ARID1A / Fold change vs veh, ARID1A / RFU, ZNF146 / Fold change vs veh, ZNF146 / RFU, ZNF330 / Fold change vs veh, ZNF330 / RFU, GPN3 / Fold change vs veh, GPN3 / RFU, C9orf123 / Fold change vs veh, C9orf123 / RFU, N4BP2L2 / Fold change vs veh, N4BP2L2 / RFU, ARFIP1 / Fold change vs veh, ARFIP1 / RFU, FAM179B / Fold change vs veh, FAM179B / RFU, BCL10 / Fold change vs veh, BCL10 / RFU, UHRF1BP1L / Fold change vs veh, UHRF1BP1L / RFU, BET1 / Fold change vs veh, BET1 / RFU, CNOT2 / Fold change vs veh, CNOT2 / RFU, ZNF268 / Fold change vs veh, ZNF268 / Fold change vs veh, ZNF507 / RFU, DGCR2 / Fold change vs veh, DGCR2 / RFU, WDSUB1 / Fold change vs veh, WDSUB1 / Fold change vs veh, HSP90B1 /// MIR3652 / RFU, ADSS / Fold change vs veh, ADSS / RFU, GK / Fold change vs veh, GK / RFU, ZNF148 / Fold change vs veh, ZNF148 / RFU, TAF9 / Fold change vs veh, TAF9 / RFU, SLC1A5 / Fold change vs veh, SLC1A5 / RFU, SLMO2 / Fold change vs veh, SLMO2 / RFU, ABCC4 / Fold change vs veh, ABCC4 / RFU, LOC101060439 /// RAP1B / Fold change vs veh, LOC101060439 /// RAP1B / RFU, RFX7 / Fold change vs veh, RFX7 / RFU, GTPBP10 / Fold change vs veh, GTPBP10 / RFU, CNEP1R1 / Fold change vs veh, CNEP1R1 / RFU, BIVM-ERCC5 /// ERCC5 / Fold change vs veh, BIVM-ERCC5 /// ERCC5 / RFU, ILF3 / Fold change vs veh, ILF3 / RFU 11762660_at / Fold change /veh 11762660_at / RFU VCAN (11757783_s_at) / Fold change /veh VCAN (11757783_s_at) / RFU DDX43 (11728927_at) / Fold change /veh DDX43 (11728927_at) / RFU KRT8 (11758188_x_at) / Fold change /veh KRT8 (11758188_x_at) / RFU NKD1 (11759106_at) / Fold change /veh NKD1 (11759106_at) / RFU SRD5A1 (11742802_a_at) / Fold change /veh SRD5A1 (11742802_a_at) / RFU TPSAB1 /// TPSB2 (11721975_s_at) / Fold change /veh TPSAB1 /// TPSB2 (11721975_s_at) / RFU GSTM3 (11746129_a_at) / Fold change /veh GSTM3 (11746129_a_at) / RFU IL23R (11737362_x_at) / Fold change /veh IL23R (11737362_x_at) / RFU TMEM51 (11727254_a_at) / Fold change /veh TMEM51 (11727254_a_at) / RFU PIWIL2 (11732686_x_at) / Fold change /veh PIWIL2 (11732686_x_at) / RFU ORM1 (11744905_x_at) / Fold change /veh ORM1 (11744905_x_at) / RFU CCDC152 (11743942_at) / Fold change /veh CCDC152 (11743942_at) / RFU ECM1 (11717891_a_at) / Fold change /veh ECM1 (11717891_a_at) / RFU IL23R (11748794_a_at) / Fold change /veh IL23R (11748794_a_at) / RFU TNFAIP8L3 (11732012_x_at) / Fold change /veh TNFAIP8L3 (11732012_x_at) / RFU MBOAT4 (11741988_at) / Fold change /veh MBOAT4 (11741988_at) / RFU 11764193_at / Fold change /veh 11764193_at / RFU TMEM53 (11763286_at) / Fold change /veh TMEM53 (11763286_at) / RFU MAGEB2 (11727129_at) / Fold change /veh MAGEB2 (11727129_at) / RFU TMEM200A (11744735_a_at) / Fold change /veh TMEM200A (11744735_a_at) / RFU CCDC152 (11751479_a_at) / Fold change /veh CCDC152 (11751479_a_at) / RFU FAM211A (11726209_a_at) / Fold change /veh FAM211A (11726209_a_at) / RFU RGS16 (11746705_a_at) / Fold change /veh RGS16 (11746705_a_at) / RFU VCAN (11755009_s_at) / Fold change /veh VCAN (11755009_s_at) / RFU RHOB (11743442_s_at) / Fold change /veh RHOB (11743442_s_at) / RFU RGS16 (11720943_a_at) / Fold change /veh RGS16 (11720943_a_at) / RFU RGS16 (11720944_at) / Fold change /veh RGS16 (11720944_at) / RFU, VPS4B / Fold change vs veh, VPS4B / RFU, CREB1 / Fold change vs veh, CREB1 / RFU, DNAJC13 / Fold change vs veh, DNAJC13 / RFU, GNAQ / Fold change vs veh, GNAQ / RFU, CDK5R1 / Fold change vs veh, CDK5R1 / RFU, ZRANB3 / Fold change vs veh, ZRANB3 / RFU, CUL4A / Fold change vs veh, CUL4A / RFU, CCNY / Fold change vs veh, CCNY / RFU, UFL1 / Fold change vs veh, UFL1 / RFU, COG3 / Fold change vs veh, COG3 / RFU, DIAPH2 / Fold change vs veh, DIAPH2 / RFU, SKA2 / Fold change vs veh, SKA2 / RFU, AFF3 / Fold change vs veh, AFF3 / RFU, LMF1 / Fold change vs veh, LMF1 / RFU, IPO11 / Fold change vs veh, IPO11 / RFU, DFFB / Fold change vs veh, DFFB / RFU, FOXP1 / Fold change vs veh, FOXP1 / RFU, CARD8 / Fold change vs veh, CARD8 / RFU, STRN3 / Fold change vs veh, STRN3 / RFU, ADK / Fold change vs veh, ADK / RFU, RASSF2 / Fold change vs veh, RASSF2 / RFU, WIPF1 / Fold change vs veh, WIPF1 / RFU, LARP1B / Fold change vs veh, LARP1B / RFU, RASA1 / Fold change vs veh, RASA1 / RFU, RB1 / Fold change vs veh, RB1 / RFU, PPFIA1 / Fold change vs veh, PPFIA1 / RFU, MAT2A / Fold change vs veh, MAT2A / RFU, CCT5 / Fold change vs veh, CCT5 / RFU, WDR92 / Fold change vs veh, WDR92 / RFU, CUX1 / Fold change vs veh, CUX1 / RFU, TTC7A / Fold change vs veh, TTC7A / RFU, TMEM135 / Fold change vs veh, TMEM135 / RFU, DEPTOR / Fold change vs veh, DEPTOR / RFU, CPM / Fold change vs veh, CPM / RFU, DNAJB6 / Fold change vs veh, DNAJB6 / RFU, CACNA2D3 / Fold change vs veh, CACNA2D3 / RFU, DTX4 / Fold change vs veh, DTX4 / RFU, TFCP2 / Fold change vs veh, TFCP2 / RFU, GMCL1 /// GMCL1P1 / Fold change vs veh, GMCL1 /// GMCL1P1 / RFU, AEBP2 / Fold change vs veh, AEBP2 / RFU, SNHG1 /// SNORD22 /// SNORD25 /// SNORD26 /// SNORD27 /// SNORD28 /// SNORD29 /// SNORD31 / Fold change vs veh, SNHG1 /// SNORD22 /// SNORD25 /// SNORD26 /// SNORD27 /// SNORD28 /// SNORD29 /// SNORD31 / Fold change (Aza/veh), C12orf56 (ProbeSet 11735607_a_at) / Fold change (ACY-1035/veh), C12orf56 (ProbeSet 11735607_a_at) / Fold change (Aza/veh), FGFR1OP (ProbeSet 11751329_s_at) / Fold change (ACY-1035/veh), FGFR1OP (ProbeSet 11751329_s_at) / Fold change (Aza/veh), VPS36 (ProbeSet 11739960_a_at) / Fold change (ACY-1035/veh), VPS36 (ProbeSet 11739960_a_at) / RFU SYPL1 (11715823_x_at) / Fold change /veh SYPL1 (11715823_x_at) / RFU IGFBP7 (11715501_s_at) / Fold change /veh IGFBP7 (11715501_s_at) / RFU REEP3 (11722064_at) / Fold change /veh REEP3 (11722064_at) / RFU IGLL1 (11728026_x_at) / Fold change /veh IGLL1 (11728026_x_at): dose or concentration left out as unconfirmed
Settings: ProbeSet 11725902_s_at; LIST D

Compound: Nc1ncn([C@@H]2O[C@H](CO)[C@@H](O)[C@H]2O)c(=O)n1 [azacitidine]
- RFU, TMEM135: 62.37 RFU
